Test results as given in patent US6552027B2, “Quinazolines for treating brain tumor” (Parker Hughes Institute, priority 1998, dated 2003).
“And” between values parts separate entries of the source, which are not always exact repeats. Equal entries are not always repeated. Where two headings read alike, the source gives them in different places.

Tests used:
[1] = test system: NALM-6 leukemia cells; assay: MTT cytotoxicity assay, EGF-R negative leukemia cells (negative control line); format: cell-based
Description: Triplicate wells were used for each treatment.
Human glioblastoma cell line U373 was obtained from American.
The percent survival was calculated using the formula: [formula]

[2] = test system: U373 glioblastoma cells; assay: Uptake and internalization by immunofluorescence and confocal microscopy; format: cell-based, human; details: 5 μg/ml
Description: At the end of the incubation, cells were washed twice with PBS and fixed in 2% paraformaldehyde. The cells were permeabilized and non-specific binding sites were blocked with 2.5% BSA in PBS containing 0.1% Triton X-100 for 30 minutes. […] After rinsing with PBS, cells were incubated for 1 hour with a mixture of a goat anti-mouse IgG antibody conjugated to FITC (Amersham Corp., Arlington Heights, Ill.) and donkey anti-rabbit IgG conjugated to Texas Red (Amersham Corp.) at a dilution of 1:40 in PBS. Similarly, tubulin expression was examined by immunofluorescence using a monoclonal antibody against α-tubulin (Sigma Chemical Co, St. Louis, Mo.) at a dilution of 1:1000 and an anti-mouse IgG conjugated to FITC. Cells were washed in PBS and counterstained with toto-3 (Molecular Probes Inc., Eugene, Oreg.) for 10 minutes at a dilution of 1:1000. Cells were washed again with PBS and the coverslips were mounted with Vectashield (Vector Labs, Burlingame, Calif.) and viewed with a confocal microscope (Bio-Rad MRC 1024) mounted in a Nikon Labhophot upright microscope.

[3] = test system: U87 human glioblastoma cell line; assay: MTT cytotoxicity assay, U87 glioblastoma cells; format: cell-based
Description: (§1) The cytotoxicity assay of various compounds against human brain tumor cell lines was performed using the MTT (3-[4,5-dimethylthiazol-2-yl]-2,5-diphenyl tetrazolium bromide) assay (Boehringer Mannheim Corp., Indianapolis, Ind.). Briefly, exponentially growing brain tumor cells were seeded into a 96-well plate at a density of 2.5×10^4 cells/well and incubated for 36 hours at 37° C. prior to drug exposure. […] Triplicate wells were used for each treatment.
(§2) The cells were incubated with the various compounds for 24-36 hours at 37° C. in a humidified 5% CO2 atmosphere. To each well, 10 μl of MTT (0.5 mg/ml final concentration) was added and the plates were incubated at 37° C. for 4 hours to allow MTT to form formazan crystals by reacting with metabolically active cells. The formazan crystals were solubilized overnight at 37° C. in a solution containing 10% SDS in 0.01 M HCl. The absorbence of each well was measured in a microplate reader (Labsystems) at 540 nm and a reference wavelength of 690 nm. To translate the OD540 values into the number of live cells in each well, the OD540 values were compared to those on standard OD540—versus—cell number curves generated for each cell line. The percent survival was calculated using the formula: [formula]
(§3) The IC50 values were calculated by non linear regression analysis.
Apoptosis was also evaluated using the nick-end-labeling assay, as described for Example 3.

[4] = test system: U373 human glioblastoma cells; assay: SCID mouse xenograft model of human glioblastoma; details: for in vivo anti-tumor activity / tumor-free survival (in words): daily i.p. doses for 10 days starting the day after inoculation
Description: The right hind legs of the CB. 17 SCID mice were inoculated subcutaneously (s.c.) with 0.5×10^6 U373 human glioblastoma cells in 0.2 mL PBS. […] Daily treatments with PBS, unconjugated EGF (1 mg/kg/dose), and unconjugated WHI-P154 (1 mg/kg/dose) were used as controls. Mice were monitored daily for health status and tumor growth, and were sacrificed if they became moribund developed tumors which impeded their ability to attain food or water, at the end of the 3-month observation period. Tumors were measured using Vernier calipers twice weekly, and the tumor volumes were calculated according to the following formula (Friedman, S. H., mDolan, M. E., Pegg, A. E., Marcelli, S., Keir, S., Catino, J. J., Binger, D. D., Schold, S. C., Jr., 1995, Cancer Res., 55:2853-2857): [formula]
For histopathologic studies, tissues were fixed in 10% neutral buffered formalin, dehydrated, and embedded in paraffin by routine methods. Glass slides with affixed 6 micron tissue sections were prepared and stained with hematoxylin/eosin. Primary endpoints of interest were tumor growth and tumor-free survival outcome. Estimation of life table outcome and comparisons of outcome between groups were done, as previously reported (Waurzyniak, et al., 1997, Clinical Cancer Research 3:881-890; Anderson, et al., 1995, Cancer Res. 55:1321-1327; Uckun, et al., 1997, J. Clin. Oncol. 15:2214-2221).

[5] = test system: glioblastoma cells; assay: In situ apoptosis assay (TdT-mediated dUTP nick-end labeling); format: cell-based, human; details: 36 hours after treatment; FIGS. 6D and 6E
Description: After a 36 hour incubation at 37° C. in a humidified 5% CO2 incubator, the supernatants were carefully aspirated and the cells were treated for 1-2 minutes with 0.1% trypsin. The detached cells were collected into a 15 ml centrifuge tube, washed with medium and pelleted by centrifugation at 1000 rpm for 5 minutes. Cells were resuspended in 50 μl of PBS, transferred to poly-L-lysine coated coverslips and allowed to attach for 15 minutes. The cells were washed once with PBS and incubated with equilibration buffer for 10 minutes at room temperature.
After removal of the equilibration buffer, cells were incubated for 1 hour at 37° C. with the reaction mixture containing terminal deoxynucleotidyl transferase (TdT) and […] for labeling of exposed 3′-hydroxyl ends of fragmented nuclear DNA. The cells were washed with PBS and incubated with anti-digoxigenin antibody conjugated to FITC for 1 hour at room temperature to detect the incorporated dUTP. After washing the cells with PBS, the coverslips were mounted onto slides with Vectashield containing propidium iodide (Vector Labs, Burlingame, Calif.) and viewed with a confocal laser scanning microscope. […] In control reactions, the TdT enzyme was omitted from the reaction mixture.

[6] = test system: U373 human glioblastoma cell line; assay: MTT cytotoxicity assay, U373 glioblastoma cells; details: U373
Description: as §1
Human glioblastoma cell line U373 was obtained from American. Type Culture Collection (Rockville, Md.) and maintained as a continuous cell line in Dulbecco's modified Eagles's medium supplemented with 10% fetal bovine serum and antibiotics. The B-lineage acute lymphoblastic leukemia cell line Nalm-6 was used as a negative control.
as §2, §3

[7] = test system: U373 glioma cells; assay: Morphology by anti-α-tubulin / TOTO-3 immunofluorescence; format: cell-based, human; details: 25 μg/ml, 24 hours
Description: Cells were fixed in paraformaldehyde, immunostained with monoclonal antibody to EGF-R (green fluorescence) and counterstained with TOTO-3 (blue fluorescence) The immunostained cells were analyzed with a laser scanning confocal microscope. Blue fluorescence represents nuclei.
Immunofluorescence was used to (i) examine the surface expression of EGF-receptor (EGF-R) on brain tumor cells, (ii) evaluate the uptake of EGF-P154 by brain tumor cells and (iii) examine the morphologic features of EGF-P154 treated brain tumor cells.
At the end of the incubation, cells were washed twice with PBS and fixed in 2% paraformaldehyde. The cells were permeabilized and non-specific binding sites were blocked with 2.5% BSA in PBS containing 0.1% Triton X-100 for 30 minutes. […] After rinsing with PBS, cells were incubated for 1 hour with a mixture of a goat anti-mouse IgG antibody conjugated to FITC (Amersham Corp., Arlington Heights, Ill.) and donkey anti-rabbit IgG conjugated to Texas Red (Amersham Corp.) at a dilution of 1:40 in PBS. Similarly, tubulin expression was examined by immunofluorescence using a monoclonal antibody against α-tubulin (Sigma Chemical Co, St. Louis, Mo.) at a dilution of 1:1000 and an anti-mouse IgG conjugated to FITC. Cells were washed in PBS and counterstained with toto-3 (Molecular Probes Inc., Eugene, Oreg.) for 10 minutes at a dilution of 1:1000. […]

[8] = test system: U373 cells; assay: EGF-stimulated cell adhesion to poly-L-lysine coated plates; format: cell-based, human; details: stimulation with 250 ng/ml EGF, baseline 33.2±5.2%, P<0.02
Description: To study the effects of quinazoline derivatives on EGF-stimulated cell adhesion, the trypsinized and recovered cells were incubated with varying concentrations ranging from 1 μM to 50 μM of quinazolines for 4 hours at 37° C., then stimulated with 250 ng/ml of EGF and examined for their ability to adhere to poly-L-lysine coated plates.
For the EGF stimulation experiments, the cells were plated in the presence of 250 ng/ml of EGF and allowed to adhere for 1 hour. The non-adherent cells were removed by gently washing the cells with PBS and then the adherent fraction was quantitated as described above for Example 6.

[9] = read-out: IC50 value derived from the composite cell survival curve
[10] = 500 μg/kg/day×10 days i.p., 5 mice

## EGF-P154: WHI-P154 attached to recombinant human EGF by photochemical conjugation with the crosslinking agent Sulfo-SANPAH
[1]
  cytotoxicity against EGF-R negative leukemia cells (in words): selective cytotoxicity to EGF-R positive glioblastoma cell lines only
[2]
  time at which internalized complexes were detected in the perinuclear region: ≤ 30 min
[3]; 3 independent experiments, FIG. 5A, read-out: mean IC50 value
  IC50: 620 ± 97 nM
[3]; 3 independent experiments, read-out: range of IC50 values
  IC50: 487 to 761 nM
[3]; [9]
  IC50: 601 nM
[4]; 500 μg/kg/day dose level, P=0.0003
  average size (mean±SE) of tumors at 40 days: 37.6±10.7 mm^3
[4]; 500 μg/kg/day dose level, P=0.002
  average size (mean±SE) of tumors at 20 days: 1.0±1.1 mm^3
[4]; 500 μg/kg/day×10 days
  delay in reaching the 50 mm^3 tumor size versus control mice (PBS, EGF, or WHI-P154): approximately 11 days
[4]; 500 μg/kg/day×10 days i.p.
  time at which tumors reached a size of 50 mm^3: 47.4 ± 7.1 days
[4]; [10]
  median tumor-free survival: 33 days
  time within which all mice developed tumors: ≤ 40 days
[4]; 1 mg/kg/day, 10 consecutive days
  mice alive and free of detectable tumors for >58 days: 40%
[4]; 1 mg/kg/day×10 days, 53.2 nmol vs 2.9 nmol of WHI-P154
  enhancement of in vivo anti-tumor activity of WHI-P154 by conjugation to EGF: > 8 fold
[4]; 1 mg/kg/day×10 days, 58-day observation period
  tumor size in the remaining 60% of the mice: ≤ 50 mm^3
[4]; 0.5 and 1 mg/kg/day×10 days i.p.
  toxicity of the applied dose levels (in words): nontoxic
[4]
  in vivo anti-tumor activity / tumor-free survival (in words): significantly improved tumor-free survival in a dose-dependent fashion
[4]; listed as EGF-P54
  in vivo anti-tumor activity / tumor-free survival (in words): significant in vivo anti-tumor activity
[5]
  apoptotic nuclei by digoxigenin-dUTP incorporation (in words): many apoptotic yellow nuclei
[6]; [9]
  IC50: 881 nM
[6]; read-out: mean IC50 value, 3 independent experiments, FIG. 5A
  IC50: 813 nM and 811 nM
[6]; read-out: range of IC50 values, 3 independent experiments
  IC50: 588 to 950 nM
[7]
  morphologic changes (in words): complete disruption of microtubules, marked shrinkage, nuclear fragmentation and inability to adhere to the substratum

## EGF: Recombinant human EGF produced in E. coli; used unconjugated as control and as adhesion stimulus
[8]
  fraction capable of adhering to poly-L-lysine coated plates: 58.48±4.7%
[4]; 1 mg/kg/day×10 days i.p.
  time at which tumors reached a size of 50 mm^3: 34.0 ± 3.0 days
[4]; 1 mg/kg/day×10 days i.p., N=5
  median tumor-free survival: 23 days
[4]
  in vivo anti-tumor activity / tumor-free survival (in words): inability
